Data: US12152016B2, “Aryl hydrocarbon receptor modulators and uses thereof” (Beth Israel Deaconess Medical Center, Inc., priority 2018, dated 2024)
pEC50: −log10 of the molar value. “Also recorded” adds a separate entry of the source.

Legend:
[1] = molecular target: T1, AhR (Homo sapiens, UniProt P35869); assay: AhR nuclear translocation assay, human HepG2; type: cell-based; settings: human HepG2, 10 μM, 90 minutes
T1 construct: endogenous in cells; host or cells: HepG2 (human liver cancer cell line)
T1 sequence (P35869 11-848): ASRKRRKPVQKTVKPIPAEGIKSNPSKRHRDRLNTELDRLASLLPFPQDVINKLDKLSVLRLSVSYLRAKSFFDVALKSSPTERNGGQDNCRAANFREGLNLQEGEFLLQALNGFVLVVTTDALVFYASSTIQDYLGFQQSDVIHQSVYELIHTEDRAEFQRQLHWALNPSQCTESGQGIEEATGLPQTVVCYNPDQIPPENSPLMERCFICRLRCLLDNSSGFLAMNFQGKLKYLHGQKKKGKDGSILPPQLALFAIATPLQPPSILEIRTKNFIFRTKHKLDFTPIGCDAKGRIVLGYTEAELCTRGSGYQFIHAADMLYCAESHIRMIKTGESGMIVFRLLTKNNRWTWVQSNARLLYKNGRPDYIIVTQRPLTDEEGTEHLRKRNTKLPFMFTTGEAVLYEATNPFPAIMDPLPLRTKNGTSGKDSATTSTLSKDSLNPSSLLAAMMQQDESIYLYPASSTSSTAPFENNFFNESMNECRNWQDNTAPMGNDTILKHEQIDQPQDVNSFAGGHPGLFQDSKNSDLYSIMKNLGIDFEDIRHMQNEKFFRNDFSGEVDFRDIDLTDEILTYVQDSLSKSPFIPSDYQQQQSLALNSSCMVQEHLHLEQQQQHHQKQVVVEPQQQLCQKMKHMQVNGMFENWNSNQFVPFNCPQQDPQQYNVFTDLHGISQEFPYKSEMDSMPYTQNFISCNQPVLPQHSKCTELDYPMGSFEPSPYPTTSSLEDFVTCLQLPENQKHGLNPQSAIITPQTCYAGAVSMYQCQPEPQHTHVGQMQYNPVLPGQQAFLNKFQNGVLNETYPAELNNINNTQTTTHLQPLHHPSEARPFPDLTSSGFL
Method: Mouse Hepa-1c1c7 or human HepG2 cells were seeded in 8 well chamber slides followed by 24 hours incubation in tryptophan deficient media (HBSS with Ca^2+ and Mg^2+, 10% heat inactivated FBS, 1× non-essential amino acids, 1× sodium pyruvate, 4.5 g/L glucose). Cells were treated with vehicle control (DMSO) or 10 μM ITE, compound 108, or compound 109 for 90 minutes in tryptophan deficient media. Following treatment, cells were fixed in 4% formaldehyde and processed according to standard immunofluorescence staining protocol. Primary anti-AhR antibody was applied at 1:100 dilution (Enzo, BML-SA210) and Alexa488 conjugated secondary antibody was applied at 1:500 dilution (Cell Signaling, 4412S). Actin was stained using Alexa 568 conjugated Phalloidin (Fisher). Samples were mounted in anti-fade mounting medium supplemented with DAPI for nuclear staining and imaged with confocal microscopy (Leica SP5×MP, 63× oil lens).

[2] = molecular target: T2, aryl hydrocarbon receptor (AHR) (Homo sapiens, UniProt P35869); assay: XRE-driven luciferase reporter assay, human HepG2
T2 sequence (P35869 11-848): T1 sequence (P35869 11-848)

[3] = tested on: AHR-dependent transcription of the CYP1A1 gene; assay: CYP1A1 induction in mouse macrophages; type: cell-based
Method: Mouse macrophages were also used to test AHR-dependent transcription of the CYP1A1 gene in vivo. Finally, the activity of exemplary compounds of Formula (I) described herein was tested in the human […] cell line U937. The U937 cell line is derived from a patient with diffuse histiocytic lymphoma. Tables 2-4 summarize structure-activity relationship data collected for exemplary, non-limiting compounds of Formula (I) described herein.

[4] = tested on: cyp1a1; assay: cyp1a1 expression by q-PCR in mouse Hepa-1c1c7 cells; type: cell-based; settings: mouse Hepa-1c1c7, 10 nM-10 μM, 8 hours
Method: RNA was extracted using TRIzol (Invitrogen) following manufacturer's instructions and 0.1 μg of RNA was converted to cDNA using a high capacity cDNA reverse transcription kit (Invitrogen). qPCR was performed on the Applied Biosystems 7900 using TaqMan® Universal PCR Master Mix (Life Technologies) with TaqMan® (Life Technologies) primers against cyp1a1 (Mm00487218_m1), AhR (Mm00478932_m1), IL-22 (Mm01226722_g1), Foxp3 (Mm00475162_m1), IL-10 (Mm01288386_m1), TNF-a (Mm00443258_m1), IFN-r (Mm01168134_m1). The fold increase from experimental groups to control was calculated using the delta-delta CT method with 18S (Mm00446186_m1) as an internal reference gene. In vitro and in vivo activation of the AhR singling pathway was confirmed by q-PCR characterization of cyp1a1. For in vitro induction, mouse Hepa-1c1c7 were cultured to confluence in 24 well plates in full DMEM followed by 24 hours incubation in tryptophan deficient media. Cells were treated with vehicle control (DMSO), ITE, compound 108, or compound 109 (10 nM-10 μM) for 8 hours in tryptophan deficient media. At the end of treatment, cells were lysed in TRIzol for RNA isolation. To monitor in vivo induction, (0.1-1000 μg) compound 109 was given per mouse via oral gavage in 100 μl of vehicle (1% HPMC, 1% polysorbate 80). After 12 hours, liver, colon, spleen and leukocytes from blood were collected and lysed in TRIzol (Invitrogen) for q-PCR analysis.

## N#Cc1cccc(C(=O)c2c[nH]c3ccccc23)n1 [Compound 108, 6-(1H-indole-3-carbonyl)pyridine-2-carbonitrile]
[1]
  AhR nuclear translocation: localized in the nucleus; also recorded: rapid nuclear enrichment of AhR
[2]; Human HepG2, fold over vehicle
  XRE luciferase Emax (fold): 74 fold
[2]; XRE luciferase EC50, Human HepG2, least square curve fitting, >10,000 = does not reach 50% of Emax of ITE at 10 μM (highest concentration tested)
  pEC50: 8.55
[3]; 50 nM
  CYP1A1 induction (% of ITE ± SEM): 33 ± 3 % of ITE
[3]; 5 μM
  CYP1A1 induction (% of ITE ± SEM): 94 ± 24 % of ITE
[4]
  cyp1a1 expression (qPCR): induced AhR-dependent cyp1a1 expression; also recorded: dose dependent induction of cyp1a1 expression
